Laboratory results published in ChEMBL document CHEMBL1143586, “Dimeric zanamivir conjugates with various linking groups are potent, long-lasting inhibitors of influenza neuraminidase including H5N1 avian influenza” (J Med Chem, 2005).
Converted amounts (≈) assume the structure as drawn. “And” between values parts separate entries of the source, which are not always exact repeats. Equal entries are not always repeated.

Key:
Influenza A virus [1] = tested on: Influenza A virus
Influenza A virus [2] = tested on: Influenza A virus; remark: listed apart in the source
[3] = Plasma half life in rat after 10 mg/kg oral dosage; format: ADME, organism-based; set-up: dose 10 mg/kg, route oral
in vivo [4] = conditions: rat, plasma
Mus musculus [5] = assay: Single intranasal effective dose required to inhibit viral replication in the 7-Day mouse efficacy model (Dosed with influenza A/Singapore /1/57); format: functional; conditions: inhaled or nasal, 168 h
[6] = Plasma half life in rat after 2 mg/kg intravenous dosage; format: ADME, organism-based; set-up: dose 2 mg/kg, route intravenous
in vivo [7] = conditions: rat, po
Influenza A virus [8] = tested on: Influenza A virus; remark: listed apart in the source
in vivo [9] = conditions: rat
Influenza A virus [10] = tested on: Influenza A virus; remark: listed apart in the source
Influenza A virus [11] = tested on: Influenza A virus; remark: listed apart in the source
Influenza B virus [12] = tested on: Influenza B virus
Influenza A virus [13] = tested on: Influenza A virus; remark: listed apart in the source
Influenza B virus [14] = tested on: Influenza B virus; remark: listed apart in the source
in vivo [15] = conditions: rat, inhaled or intranasal
in vivo [16] = conditions: rat, po; remark: listed apart in the source
Influenza B virus [17] = tested on: Influenza B virus; remark: listed apart in the source
[18] = Plasma half life in rat after 0.4 mg/kg intratracheal dosage; format: ADME, organism-based; set-up: dose 0.4 mg/kg, route endotracheal; conditions: inhaled or intranasal
[19] = molecular target: Neuraminidase (Influenza A virus (A/Puerto Rico/8/1934(H1N1)), UniProt P03468)
[20] = molecular target: Neuraminidase (Influenza A virus (A/Puerto Rico/8/1934(H1N1)), UniProt P03468); remark: listed apart in the source
Mus musculus [21] = assay: Single intranasal effective dose required to inhibit viral replication in the 7-Day mouse efficacy model (Dosed with influenza A/Victoria/3/75); format: functional; conditions: inhaled or nasal, 168 h
[22] = molecular target: Neuraminidase (Influenza A virus (A/Puerto Rico/8/1934(H1N1)), UniProt P03468); remark: listed apart in the source

Sequence of Neuraminidase (Influenza A virus (A/Puerto Rico/8/1934(H1N1)), UniProt P03468) (P03468 whole entry): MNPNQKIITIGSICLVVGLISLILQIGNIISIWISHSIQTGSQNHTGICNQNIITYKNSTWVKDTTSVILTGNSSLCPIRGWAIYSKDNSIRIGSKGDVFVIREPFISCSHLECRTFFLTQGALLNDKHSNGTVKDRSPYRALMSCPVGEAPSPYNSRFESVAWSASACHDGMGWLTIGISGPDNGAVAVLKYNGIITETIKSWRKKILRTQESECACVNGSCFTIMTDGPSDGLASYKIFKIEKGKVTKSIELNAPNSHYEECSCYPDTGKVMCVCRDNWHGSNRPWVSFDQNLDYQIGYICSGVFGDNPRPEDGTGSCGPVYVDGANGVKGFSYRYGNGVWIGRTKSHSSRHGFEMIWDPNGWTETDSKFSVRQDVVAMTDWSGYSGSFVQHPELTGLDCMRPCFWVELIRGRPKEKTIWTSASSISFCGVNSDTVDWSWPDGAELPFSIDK

| SMILES | EC50 (Influenza A virus [1]) [ng/mL] | EC50 (Influenza A virus [2]) | half-life [3] [h] | clearance (in vivo [4]) [mL/min/kg] | half-life [6] [h] | bioavailability (in vivo [7]) [%] | EC50 (Influenza A virus [8]) [ng/mL] | Vd (in vivo [9]) [L/kg] | EC50 (Influenza A virus [10]) [ng/mL] | EC50 (Influenza A virus [11]) [ng/mL] | EC50 (Influenza B virus [12]) [ng/mL] | EC50 (Influenza B virus [14]) | bioavailability (in vivo [15]) [%] | half-life [18] [h] | further results |
| --- | --- | --- | --- | --- | --- | --- | --- | --- | --- | --- | --- | --- | --- | --- | --- |
| [H]/N=C(\N)N[C@H]1C=C(C(=O)O)O[C@@H]([C@H](O)[C@H](O)CO)C1NC(C)=O (some centres not stated) | 2.4 (≈ 7.22 nM) | 56 ng/mL and > 100 ng/mL | 0.25 | 1.42 | 0.4 | 2.7 | 35 (≈ 105 nM) | 0.03 | 0.27 (≈ 0.812 nM) | 2.7 (≈ 8.12 nM) | 21 (≈ 63.2 nM) | 11.5 ng/mL (≈ 34.6 nM) |  |  | ED90 (Mus musculus [5]): 2.92 mg/kg; EC50 (Influenza A virus [13]): 5.5 ng/mL (≈ 16.6 nM) |
| COC(=O)C1=C[C@H](N=C(N)N)C(NC(C)=O)[C@H]([C@H](OC(=O)NCCCNC(=O)c2ccc(C(=O)NCCCNC(=O)O[C@H](C(O)CO)[C@@H]3OC(C(=O)O)=C[C@H](N=C(N)N)C3NC(C)=O)cc2)C(O)CO)O1 (some centres not stated) | 0.05 (≈ 0.0496 nM) | 0.02 ng/mL (≈ 0.0198 nM) |  | 0.7 | 0.4 |  | 0.009 (≈ 0.00892 nM) | 0.2 | 0.06 (≈ 0.0595 nM) | 0.03 (≈ 0.0297 nM) | 0.32 (≈ 0.317 nM) |  | 67 | 2 | bioavailability (in vivo [16]): < 1%; EC50 (Influenza B virus [17]): 0.022 ng/mL (≈ 0.0218 nM) |
| CC(=O)NC1[C@@H](N=C(N)N)C=C(C(=O)O)O[C@H]1[C@H](OC(=O)NCCCCCCCCCCCCNC(=O)O[C@H](C(O)CO)[C@@H]1OC(C(=O)O)=C[C@H](NC(=N)N)C1NC(C)=O)C(O)CO (some centres not stated) | 0.032 (≈ 0.0349 nM) |  | 4.9 | 0.7 | 2.2 | < 1 |  | 0.2 |  | 0.032 (≈ 0.0349 nM) | 0.37 (≈ 0.403 nM) | 0.05 ng/mL and 0.1 ng/mL | 67 | 5 | IC50 [19]: 61 nM; IC50 [20]: 7.86 nM; ED90 (Mus musculus [21]): 0.03 mg/kg; IC50 [22]: 21.7 nM |
